One assay concerns pig oocyte ZP. Description: Landscape phage library selection on pig oocytes with intact zona pellucida, after negative selection on cat, dog and cow oocytes. It is filed as binding. The note with it: 9-mer peptides displayed on landscape phage. Here is the method:
Using a strategy similar to the strategy of Example 2, 9-mer peptides that bind specifically to pig oocyte ZP were identified using a landscape phage library. In this library, foreign (non-phage) 9-mer peptides are expressed in each pVIII copy over the phage surface resulting in thousands of peptide copies per phage particle. […] Prior to phage display library selection on pig oocytes, negative selection steps on cat, dog and cow oocytes were performed. Sequences of the identified peptides are DPGLSLGDD (SEQ ID NO:41); AYNLGEGDT (SEQ ID NO:42); GQQGLNGDS (SEQ ID NO:43); DVGGGTGTE (SEQ ID NO:44); GPNSSDADS (SEQ ID NO:45); and GEGGYGSHD (SEQ ID NO:46).
On to “AYNLGEGDT (Phage library random peptide insert) [SEQ ID NO:42]”, for which the “binding to pig ZP” value is “specifically recognize and bind to pig ZP”.

As for “DPGLSLGDD (Phage library random peptide insert) [SEQ ID NO:41]”, the “binding to pig ZP” value was “specifically recognize and bind to pig ZP”.

On to “DVGGGTGTE (Phage library random peptide insert) [SEQ ID NO:44]”, for which the “binding to pig ZP” value was “specifically recognize and bind to pig ZP”.

Turning to “GEGGYGSHD (Phage library random peptide insert) [SEQ ID NO:46]”, the “binding to pig ZP” value was “specifically recognize and bind to pig ZP”.

Consider “GPNSSDADS (Phage library random peptide insert) [SEQ ID NO:45]”, for which the “binding to pig ZP” value was “specifically recognize and bind to pig ZP”.

Take “GQQGLNGDS (Phage library random peptide insert) [SEQ ID NO:43]”: the “binding to pig ZP” value is “specifically recognize and bind to pig ZP”.

For the next assay, the system named is cat oocyte ZP. Description: Landscape phage library selection on cat oocytes with intact zona pellucida. The note with it: 9-mer peptides displayed on landscape phage. It is filed as binding. The text has this:
Using a strategy similar to the strategy of Examples 2, 5, and 7, 9-mer peptides that bind to cat oocyte ZP were identified using a landscape phage library. In this library, foreign (non-phage) 9-mer peptides are expressed in each pVIII copy over the phage surface resulting in thousands of peptide copies per phage particle. […] Sequences of the identified peptides are AGSSYTQDS (SEQ ID NO:53); EVNGGSADS (SEQ ID NO:54); EAYPGLDWD (SEQ ID NO:55); and VKSEDPSLN (SEQ ID NO:56).
Turning to “AGSSYTQDS (Phage library random peptide insert) [SEQ ID NO:53]”, the “binding to cat ZP” value is “specifically recognize and bind to cat ZP”.

With “EAYPGLDWD (Phage library random peptide insert) [SEQ ID NO:55]”, the “binding to cat ZP” value was “specifically recognize and bind to cat ZP”.

Turning to “EVNGGSADS (Phage library random peptide insert) [SEQ ID NO:54]”, the “binding to cat ZP” value was “specifically recognize and bind to cat ZP”.

For “VKSEDPSLN (Phage library random peptide insert) [SEQ ID NO:56]”, the “binding to cat ZP” value is “specifically recognize and bind to cat ZP”.

The next assay concerns dog oocyte ZP. Description: Landscape phage library selection on dog oocytes with intact zona pellucida. In kind it is binding. As to conditions: 9-mer peptides displayed on landscape phage. An excerpt: Using a strategy similar to the strategy of Examples 2 and 5, 9-mer peptides that bind to dog oocyte ZP were identified using a landscape phage library. In this library, foreign (non-phage) 9-mer peptides are expressed in each pVIII copy over the phage surface resulting in thousands of peptide copies per phage particle. […] Sequences of the identified peptides are DDLNSFVND (SEQ ID NO:47); ADLAAFYDD (SEQ ID NO:48); EPGGMVGSD (SEQ ID NO:49); DGVYLVGDD (SEQ ID NO:50); DWSGQDVEN (SEQ ID NO:51); and GMVGSGYDS (SEQ ID NO:52).
“ADLAAFYDD (Phage library random peptide insert) [SEQ ID NO:48]”: the “binding to dog ZP” value was “specifically recognize and bind to dog ZP”.

In the case of “DDLNSFVND (Phage library random peptide insert) [SEQ ID NO:47]”, the “binding to dog ZP” value is “specifically recognize and bind to dog ZP”.

On to “DGVYLVGDD (Phage library random peptide insert) [SEQ ID NO:50]”, for which the “binding to dog ZP” value is “specifically recognize and bind to dog ZP”.

With “DWSGQDVEN (Phage library random peptide insert) [SEQ ID NO:51]”, the “binding to dog ZP” value is “specifically recognize and bind to dog ZP”.

Take “EPGGMVGSD (Phage library random peptide insert) [SEQ ID NO:49]”: the “binding to dog ZP” value is “specifically recognize and bind to dog ZP”.

For “GMVGSGYDS (Phage library random peptide insert) [SEQ ID NO:52]”, the “binding to dog ZP” value was “specifically recognize and bind to dog ZP”.

The values are drawn from patent publication US8871901B2, “Phage constructs, sequences and antigenic compositions for immunocontraception of animals” (Auburn University, priority 2010, dated 2014).
